Where “and” joins values, the source holds several entries; their conditions need not be identical. Equal entries are not always repeated. Where two headings read alike, the source gives them in different places. Square brackets hold non-standard residues; d marks the D form. Ends that are not written are not given here. Peptide text beside a SMILES is read from it. * marks the point of attachment. Benzoyl(4-octyl) = CCCCCCCCc1ccc(C(=O)*)cc1; pT = C[C@@H](OP(=O)(O)O)[C@H](N)C(=O)O; X2 = O=C(c1ccc(OCc2ccc(F)cc2)cc1)*; Benzoyl(4-OH) = O=C(c1ccc(O)cc1)*

For assay [1], the target named is polo-box domain (PBD) of polo-like kinase 1 (PLK1) (UniProt P53350). The assay can be described thus: fluorescence polarization competition, displacement of tracer peptide from PLK1 PBD. For orientation: In fluorescence polarisation assays a small probe gives low polarisation when free and higher when bound to something large.
polo-box domain (PBD) of polo-like kinase 1 (PLK1) (UniProt P53350), sequence (P53350 367-603 limits assumed): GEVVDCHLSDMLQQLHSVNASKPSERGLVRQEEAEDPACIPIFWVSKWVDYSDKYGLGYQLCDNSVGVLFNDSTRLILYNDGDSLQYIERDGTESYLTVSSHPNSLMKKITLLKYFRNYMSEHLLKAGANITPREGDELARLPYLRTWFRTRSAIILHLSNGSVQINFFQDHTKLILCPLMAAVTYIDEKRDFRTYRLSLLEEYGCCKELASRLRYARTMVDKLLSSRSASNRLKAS
Assay [2] shares this target. The assay can be described thus: fluorescence polarization competition on PLK1 PBD.
The target is the same in assay [3]. The assay can be described thus: from FP IC50s; PLK1 PBD against PLK3 PBD.
The next assay concerns the target PLK1 PBD (Homo sapiens, UniProt P53350). The assay can be described thus: Fluorescence polarization competitive binding assay, PLK1 PBD. The following applies: for Selectivity Index: (IC50 PLK3 PBD/IC50 PLK1 PBD)×5, PLK1 over PLK3. The procedure:
According to the assay, binding of a fluorescent tracer peptide to a protein increased polarization of the emitted fluorescence. […] The ability of test molecules to bind to the PBD was quantitated by a reduction in mP values that occurred as the tracer was displaced from the PBD, and plotted to calculate as an IC50 value.
(§1) The affinities of the peptides for PLK1 and PLK3 were measured by plotting the loss of polarization against increasing concentration of competitor peptide through use of an optimized assay and selectivity determination.

Another assay concerns the target T1, PLK3 PBD (Homo sapiens, UniProt Q9H4B4).
T1 construct: A similar assay format was developed for the PLK3 PBD
T1 sequence (Q9H4B4 335-646 limits assumed): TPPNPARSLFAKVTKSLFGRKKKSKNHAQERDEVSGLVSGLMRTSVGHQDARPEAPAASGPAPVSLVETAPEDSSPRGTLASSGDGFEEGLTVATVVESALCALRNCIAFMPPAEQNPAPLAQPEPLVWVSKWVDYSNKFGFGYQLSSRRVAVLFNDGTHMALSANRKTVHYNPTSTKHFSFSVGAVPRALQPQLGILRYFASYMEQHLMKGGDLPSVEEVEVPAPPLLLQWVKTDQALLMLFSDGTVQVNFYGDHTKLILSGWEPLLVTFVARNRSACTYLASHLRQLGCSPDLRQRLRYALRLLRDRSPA
The assay can be described thus: Fluorescence polarization competitive binding assay, PLK3 PBD. The following applies: for PLK3 PBD binding, in words: FP assay. The protocol:
The binding of fluorescein-labelled tracer peptides used for both assays was determined to see if there was a difference in affinity for their respective PBD. A titration curve for each tracer/PLK PBD complex was generated to determine Kd values for each and therefore compare the relative binding affinities.
as §1

Assay [4] deals with polo-box domain (PBD) of polo-like kinase 1 (PLK1) (UniProt P53350). In words: from FP IC50s, (IC50 PLK3 PBD/IC50 PLK1 PBD)x5; PLK1 PBD against PLK3 PBD.
The target of assay [5] is T2, polo-box domain (PBD) of polo-like kinase 1 (PLK1) (UniProt P53350 367-603, limits assumed).
T2 construct: domain: polo-box domain (PBD); the background speaks of the four known human PLKs and the residue numbers (L491) fit human PLK1; also called PLK1 PBD; PBD of PLK1
T2 sequence (P53350 367-603 limits assumed): as the sequence (P53350 367-603 limits assumed) above
In words: fluorescence polarization competition, displacement of tracer peptide from PLK1 PBD. From the text: According to the assay, binding of a fluorescent tracer peptide to a protein increased polarization of the emitted fluorescence. […] The ability of test molecules to bind to the PBD was quantitated by a reduction in mP values that occurred as the tracer was displaced from the PBD, and plotted to calculate as an IC₅₀ value.

[6] abbreviates: PLK3 PBD FP IC50, competition with fluorescent tracer peptide.
The mark [7] stands for this setting: competition with fluorescent tracer peptide, read-out: PLK3 PBD FP IC50.
Setting [8] is: competition with fluorescent tracer peptide, read-out: PLK1 PBD FP IC50.

PLK1 PBD, sequence (P53350 367-603 limits assumed): as the sequence (P53350 367-603 limits assumed) above

What is called IC50 is the concentration that inhibits the measured activity by half. Regarding “4-butyl benzamide FLIP, 4-butyl S[pT]PNGL (SEQ ID NO: 11) (peptide)”, the IC50 in assay [1] came to 2.5 µM. The fold potency increase against Compound #9 in assay [2] amounted to 2 fold. For the same molecule, in assay [3], the Selectivity Index was more than 1200.
With `CC(C)C[C@H](NC(=O)CNC(=O)[C@H](CC(N)=O)NC(=O)[C@@H]1CCCN1C(=O)[C@@H](NC(=O)[C@H](CO)NC(=O)c1ccc(O)cc1)[C@@H](C)OP(=O)(O)O)C(=O)O` [Compound 1] ({Benzoyl(4-OH)}-S[pT]PNGL-OH), the “PLK1 PBD binding, in words” value on PLK1 PBD (FP assay) is “completely inactive”.
As for `CC(C)C[C@H](NC(=O)CNC(=O)[C@H](CC(N)=O)NC(=O)[C@@H]1CCCN1C(=O)[C@@H](NC(=O)[C@H](CO)NC(=O)c1ccc(OCc2ccc(F)cc2)cc1)[C@@H](C)OP(=O)(O)O)C(=O)O` [Compound 5] (X2-S[pT]PNGL-OH; C-terminus assumed), on PLK1 PBD, the IC50 is 5 µM and the “fold reduction of PLK1 PBD binding relative to parent compound” value is recorded as approximately 24 fold.
On PLK3 PBD (setting [6]), `CCCCCCCCc1ccc(C(=O)N[C@@H](CO)C(=O)N[C@H](C(=O)N2CCC[C@H]2C(=O)N[C@@H](CC(N)=O)C(=O)NCC(=O)N[C@@H](CC(C)C)C(=O)O)[C@@H](C)OP(=O)(O)O)cc1` [Compound 13] ({Benzoyl(4-octyl)}-S[pT]PNGL-OH; C-terminus assumed) showed an IC50 of 149 ± 38.2 µM.
Regarding `CCCCCCCCc1ccc(C(=O)N[C@@H](CO)C(=O)N[C@H](C(=O)N[C@@H](C)C(=O)O)[C@@H](C)OP(=O)(O)O)cc1` [Compound 14], at PLK1 PBD, the “fold reduction of PLK1 PBD binding relative to parent compound” value was approximately 40 fold and the “Selectivity Index” value was 66. Further, the IC50 at PLK3 PBD (setting [7]) was 202 ± 51.3 µM.
Consider `CC(C)C[C@H](NC(=O)CNC(=O)[C@H](CC(N)=O)NC(=O)[C@@H]1CCCN1C(=O)[C@@H](NC(=O)[C@H](CO)NC(=O)[C@H](CS)NC(=O)[C@H](CC(C)C)NC(=O)[C@@H](N)CC(C)C)[C@@H](C)OP(=O)(O)O)C(=O)O` [SEQ ID NO: 1, LLCS[pT]PNGL, reference compound] (H-LLCS[pT]PNGL-OH; N-terminus and C-terminus assumed), for which the “PLK3 PBD binding, in words” value at PLK3 PBD is on record as “no PLK3 PBD binding apparent at the maximum concentration tested”.
Molecule `CC(C)C[C@H](NC(=O)CNC(=O)[C@H](CC(N)=O)NC(=O)[C@@H]1CCCN1C(=O)[C@@H](NC(=O)[C@H](CO)NC(=O)[C@H](CS)NC(=O)[C@H](CC(C)C)NC(=O)[C@@H](N)CC(C)C)[C@@H](C)O)C(=O)O` [SEQ ID NO: 2, reference compound] (H-LLCSTPNGL-OH) had an IC50 on PLK1 PBD of more than 600 µM.
With `CC(=O)N1CCC[C@H]1C(=O)N[C@@H](CC(C)C)C(=O)N[C@@H](Cc1c[nH]cn1)C(=O)N[C@@H](CO)C(=O)N[C@H](C(=O)N1CCC[C@H]1C(=O)N[C@@H](CC(N)=O)C(=O)NCC(=O)N[C@@H](CC(C)C)C(=O)O)[C@@H](C)OP(=O)(O)O` [SEQ ID NO: 3, Ac-PLHS[pT]PNGL] (Ac-PLHS[pT]PNGL-OH; C-terminus assumed), on PLK1 PBD, the “Selectivity Index” value is recorded as 13,633. Besides, the IC50 at PLK1 PBD (setting [8]) stood at 0.06 µM; at PLK3 PBD (setting [7]), 164 µM.
On the same counts, the results for `CC[C@H](C)[C@H](NC(=O)[C@H](C)NC(=O)[C@@H](NC(=O)[C@H](CO)NC(=O)[C@H](Cc1c[nH]cn1)NC(=O)[C@H](CC(C)C)NC(=O)[C@@H]1CCCN1C(C)=O)[C@@H](C)OP(=O)(O)O)C(=O)O` [SEQ ID NO: 4, Ac-PLHS[pT]Al] (Ac-PLHS[pT]AI-OH; C-terminus assumed) are 21,133, 0.064 µM and 270 µM.
With `CC[C@H](C)[C@H](NC(=O)[C@H](C)NC(=O)[C@@H](NC(=O)[C@H](CO)NC(=O)[C@H](Cc1c[nH]cn1)NC(=O)[C@H](CC(C)C)NC(C)=O)[C@@H](C)OP(=O)(O)O)C(=O)O` [SEQ ID NO: 5, Ac-LHS[pT]Al] (Ac-LHS[pT]AI-OH; C-terminus assumed), at PLK1 PBD, the IC50 came to 1.57 µM and the “Selectivity Index” value is on record as more than 1900. For the same molecule, the “PLK3 PBD binding, in words” value on PLK3 PBD is on record as “lost all detectable affinity”. The half-maximal inhibitory concentration (IC50) on PLK3 PBD (setting [6]) is more than 600 µM.
On to `CC(C)C[C@H](NC(=O)[C@@H]1CCCN1C(=O)CN)C(=O)N[C@@H](C)C(=O)N[C@H](C(=O)N[C@@H](CO)C(=O)N[C@H](C(=O)N1CCC[C@H]1C(=O)N[C@@H](CCCCN)C(=O)N[C@@H](CC(N)=O)C(=O)NCC(=O)O)[C@@H](C)OP(=O)(O)O)[C@@H](C)O` [SEQ ID NO: 7, GPLATS[pT]PKNG, reference compound] (H-GPLATS[pT]PKNG-OH; N-terminus and C-terminus assumed), for which, at PLK1 PBD, the IC50 was 0.0057 µM; the “Selectivity Index” value was ~2000 and 1928. Further, the IC50 on PLK3 PBD (setting [6]) is 2.2 µM.
`CC(C)C[C@H](NC(=O)CNC(=O)[C@H](CC(N)=O)NC(=O)[C@@H]1CCCN1C(=O)[C@@H](NC(=O)[C@H](CO)NC(=O)[C@@H](NC(=O)[C@H](C)NC(=O)[C@H](CC(C)C)NC(=O)[C@@H]1CCCN1C(=O)CN)[C@@H](C)O)[C@@H](C)OP(=O)(O)O)C(=O)O` [SEQ ID NO: 8, GPLATS[pT]PNGL] (H-GPLATS[pT]PNGL-OH; N-terminus and C-terminus assumed): on PLK1 PBD, the IC50 is 0.011 µM, the “fold reduction of PLK1 PBD binding relative to parent compound” value was determined as 2 fold and the “Selectivity Index” value amounted to 2864. In addition, the “fold reduction of PLK3 PBD binding relative to parent compound” value on PLK3 PBD stood at 3 fold. For the same molecule, at PLK3 PBD (setting [6]), the IC50 is 6.3 µM.
In the case of `CC(=O)N1CCC[C@H]1C(=O)N[C@@H](CC(C)C)C(=O)N[C@@H](Cc1c[nH]cn1)C(=O)N[C@@H](CO)C(=O)N[C@H](C(=O)N1CCC[C@H]1C(=O)N[C@@H](CCCCN)C(=O)N[C@@H](CC(N)=O)C(=O)NCC(=O)O)[C@@H](C)OP(=O)(O)O` [SEQ ID NO: 9, Ac-PLHS[pT]PKNG] (Ac-PLHS[pT]PKNG-OH; C-terminus assumed), at PLK1 PBD, the “Selectivity Index” value is recorded as 20,906. Further, the IC50 came out at 0.032 µM on PLK1 PBD (setting [8]) and 134 µM at PLK3 PBD (setting [7]).
The molecule Ac-PLHS[pT]A (SEQ ID NO: 6) registered an IC50 in assay [1] of 0.46 µM. In addition, the fold reduction in binding against SEQ ID NO: 4 in assay [2] was 7 fold. In assay [4], the Selectivity Index is more than 6500.
Consider Ac-PLHS[pT]AI (SEQ ID NO: 4), for which the Selectivity Index in assay [4] turned out to be 21100.
The molecule Ac-PLHS[pT]PKNG (SEQ ID NO: 9) returned a fold weakened affinity against SEQ ID NO: 8 in assay [2] of 2 fold. The molecule further gave a Selectivity Index in assay [4] of 20900.
Take Ac-PLHS[pT]PNGL (SEQ ID NO: 3): the fold increase against SEQ ID NO: 1 in assay [2] came out at 3 fold. In addition, the Selectivity Index in assay [4] came out at 13600.
Consider “Compound No. 12, 4-hexyl S[pT]PNGL (SEQ ID NO: 11) (peptide)”, for which the IC50 in assay [1] is 1 µM. Moreover, the Selectivity Index in assay [3] was more than 2830.
On the same counts, the results for “Compound No. 13, 4-octyl S[pT]PNGL (SEQ ID NO: 11) (peptide)” are 0.36 µM and 2070.
For “Compound No. 14, 4-octyl S[pT]A (SEQ ID NO: 12) (peptide)”, in assay [1], the IC50 worked out at 15.2 µM. Moreover, the fold weaker affinity against Compound No. 15 in assay [2] was 40 fold. In assay [3], the Selectivity Index turned out to be 66.
As for GPLATS[pT]PKNG (SEQ ID NO: 7), in assay [4], the Selectivity Index was found to be 1930.
{4‑phenethoxybenzoyl}-S[pT]PNGL (also: further groups not given here, see m14; also called Compound No. 6) [Compound #6, 4-phenethoxy FLIP (R1 = OCH2CH2C6H5)] had an IC50 in assay [5] of 4.5 µM.
The molecule {4‑methoxybenzoyl}-S[pT]PNGL (also: further groups not given here, see m14; also called Compound No. 2) [Compound #2, methoxy derivative FLIP (R1 = OCH3)] came in with an IC50 in assay [5] of 21.9 µM.
Consider Ac-LHS[pT]AI [Ac-LHS[pT]AI (SEQ ID NO: 5)], for which, in assay [2], the fold loss of binding against SEQ ID NO: 4 came to 24 fold. In assay [4], this molecule registered a Selectivity Index of more than 1900.
The molecule {4‑(methylthio)benzoyl}-S[pT]PNGL (also: further groups not given here, see m14; also called Compound No. 7) [Compound #7, thiomethyl FLIP (R1 = SCH3)] registered an IC50 in assay [5] of 3 µM.
On to {4‑ethoxybenzoyl}-S[pT]PNGL (also: further groups not given here, see m14; also called Compound No. 3) [Compound #3 FLIP (R1 = OCH2CH3)], for which the IC50 in assay [5] is 15.9 µM.

The values are drawn from patent US20190269784A1, “Selective Inhibitors of the Polo-Like Kinase 1 Polo-Box Domain” (UNIVERSITY OF SOUTH CAROLINA, priority 2018, published 2019).
